One series concerns NL4.3/AMD3100R. Kind of series: microbe, parasite or virus in culture. As to conditions: NL4.3/AMD3100R; EC50 for NL4.3 wild-type as 1. It counts as cell-based, HIV-1.
Series [1] concerns HIV-1 IIIB. Kind of series: MT-4/MTT-assay, protection against virus-induced cytopathic effect. The class given is cell-based. As to conditions: MT-4 cells, MTT, 5 days after infection. A general note: Tetrazolium dyes change colour on reduction, which living cells bring about.
Series [2] has as its system HIV-2 ROD. Described as above. The class given is cell-based. As to conditions: MT-4 cells, MTT, 5 days after infection.
The test system of a further series is SIV Mac251. The description is as above. As to conditions: MT-4 cells, MTT, 5 days after infection. It counts as cell-based.
The subject of another series is MT-4 cells. Kind of series: Cytotoxicity in mock-infected MT-4 cells (MTT). It counts as cell-based.
Series [3] relates to HIV-1 IIIB. Kind of series: Anti-HIV activity in CEM cells (cytopathogenicity). It counts as cell-based.
For series [4], the system named is HIV-2 ROD. Kind of series: Anti-HIV activity in CEM cells (cytopathogenicity). The class given is cell-based. A general note: Protection from cytopathic effect is a common read-out in antiviral testing.
In series [5] the test system is human T-lymphocyte (CEM) cells. Kind of series: Cytostatic activity, CEM cell proliferation. The class given is cell-based.
In series [6] the test system is HIV-1 IIIB chronically-infected HuT-78 cells. Kind of series: Gag processing in virions from HIV-1 IIIB chronically-infected HuT-78 cells (western blot). As to conditions: HuT-78/IIIB cells treated 43 hours; WDO-217 50, 25 μM; ritonavir 2.7 μM; SRR-SB3 75, 15 μM. It counts as cell-based. The procedure:
Recently, it has been shown that this new mechanism involves acetylation of the NCp7 region of Gag, thereby blocking Gag processing.
HIV-1 IIIB virions from persistently infected HuT-78 cells treated with different concentrations of compound were analysed by gel electrophoresis and immunoblotted with antibody against capsid.
Chronically-infected HIV-1 IIIB HuT-78 cells (HuT-78/IIIB) were washed four times with PBS to remove all free virions before treatment and 2 × 10^5 cells were resuspended in 1 ml compound-containing medium for 43 hours at 37°C. Then, virions were prepared from clarified supernatants (10 min at 300 g) by centrifugation at 36670 g for 2 hours at 4°C. Protein from lysed virions were separated by SDS-PAGE on a NuPage® Novex 4-12% Bis-Tris gel (Invitrogen) and transferred on a hydrophobic polyvinylidene difluoride (PVDF) membrane (Amersham Hybond™-P). The blot was blocked overnight at 4°C by 5% dry milk powder in Western blot wash solution (WBWS; PBS + 0.5% Tween 20), washed three times for 5 minutes with WBWS and incubated with a mouse anti-HIV-1 p24 antibody (1:5000) from Abcam. The blot was then washed three times for 5 minutes with WBWS and incubated for 1 h with a goat anti-mouse IgG-HRP secondary antibody (1:2500) from Santa Cruz Biotechnology. […]
For orientation: A western blot detects proteins with antibodies after separation by electrophoresis.

Series [7] relates to HIV-1 virus particles. Kind of series: Virion-associated p24 of pre-treated, compound-cleared virus (ELISA). As to conditions: compound-cleared HIV-1 virus stock.
The test system of series [8] is HIV-1 virus particles. Kind of series: Virion-associated genomic RNA of pre-treated virus (RT-qPCR, Northern blot). As to conditions: compound-cleared HIV-1 virus stock, RT-qPCR or Northern blot.
In series [9] the test system is HIV-1 IIIB. Kind of series: Virucidal assay: virus pre-incubated with compound, diluted, titrated on MT-4 cells. As to conditions: virus incubated 1 h 37°C with 0.5%; no drug 1 × 10^6.
For series [10], the system named is HIV-2 ROD. The description is as above. As to conditions: virus incubated 1 h 37°C with 0.5%; no drug 5.4 × 10^6.

For the molecule `c1cc(CN2CCCNCCNCCCNCC2)ccc1CN1CCCNCCNCCCNCC1` [AMD3100, reference compound], the “Fold resistance of mutant strain towards the respective inhibitor” value in the series with NL4.3/AMD3100R was “(>100)”.
Usually EC50 stands for the concentration needed to bring the measured effect to its halfway point. One may read the CC50 as the concentration that lowers cell viability or growth by half. Read a high CC50 as better tolerance by the cells. With `Cc1cn([C@H]2C[C@H](N=[N+]=[N-])[C@@H](CO)O2)c(=O)[nH]c1=O` [AZT, reference compound], the EC50 worked out at 7 ± 1 nM with HIV-1 IIIB [1]; 5 ± 0.8 nM in the series with HIV-2 ROD [2]; 16 ± 7 nM in the series with SIV Mac251; 58 ± 30 nM in the series on HIV-1 IIIB [3]; 55 ± 20 nM in the series with HIV-2 ROD [4]. For the same molecule, the figures for the cytotoxic concentration (CC50) (in the series with MT-4 cells; in series [5]) were above 35000 nM and above 125000 nM, respectively.
For the molecule `CC(C)c1nc(CN(C)C(=O)N[C@H](C(=O)N[C@@H](Cc2ccccc2)C[C@H](O)[C@H](Cc2ccccc2)NC(=O)OCc2cncs2)C(C)C)cs1` [ritonavir, reference compound], in [6], the “accumulation of unprocessed Gag polyprotein in progeny virus” value is “did effectively increase”.
With Triton X-100 [reference compound], the “virus-associated p24 core protein after treatment” value with HIV-1 virus particles [7] is recorded as “no p24 core protein nor viral genomic RNA could be detected”. Besides, the “viral genomic RNA content after treatment” value with HIV-1 virus particles [8] is on record as “no p24 core protein nor viral genomic RNA could be detected”. For the same molecule, the “CCID50/ml HIV-1 IIIB” value in the series with HIV-1 IIIB [9] was 0 CCID50/ml. In the series with HIV-2 ROD [10], the “CCID50/ml HIV-2 ROD” value was determined as 0 CCID50/ml.

The values above are taken from paper PMC3542062, “A phenyl-thiadiazolylidene-amine derivative ejects zinc from retroviral nucleocapsid zinc fingers and inactivates HIV virions” (Retrovirology, 2012).
